Laboratory results published in US4312867A, “Antibacterial compounds, processes for their preparation and compositions containing them” (Beecham Group Limited, priority 1979, dated 1982).
Values after ≈ are worked out from the molar mass of the structure shown.

tested on: E. coli E1; assay: MIC veterinary bacteria (Table 2), serial dilution in agar; assay type: cell-based; details: Escherichia coli, diagnostic sensitivity test agar

Q: With `C/C(=C\C(=O)OC(C)CCCCCS(N)(=O)=O)CC1OCC(CC2OC2C(C)C(C)O)C(O)C1O` (centres unmarked) [Example 5, 7-Sulphamoylhept-2-yl monate A] as the molecule, how does the MIC read?
A: > 80 µg/mL

tested on: Strep pneumoniae CN33; assay: MIC human bacteria (Table 1), serial dilution in nutrient agar; assay type: cell-based; details: nutrient agar with 5% chocolated horse blood

Q: With `C/C(=C\C(=O)OC(C)CCCCCS(N)(=O)=O)CC1OCC(CC2OC2C(C)C(C)O)C(O)C1O` (centres unmarked) [Example 5, 7-Sulphamoylhept-2-yl monate A] as the molecule, how does the MIC read?
A: 1 µg/mL (≈ 1.92 µM)

tested on: Corynebacterium xerosis 9755; assay: as above; assay type: cell-based; details: nutrient agar with 5% chocolated horse blood

Q: With `C/C(=C\C(=O)OC(C)CCCCCS(N)(=O)=O)CC1OCC(CC2OC2C(C)C(C)O)C(O)C1O` (centres unmarked) [Example 5, 7-Sulphamoylhept-2-yl monate A] as the molecule, how does the MIC read?
A: No Growth

tested on: Bord bronchiseptica B08; assay: MIC veterinary bacteria (Table 2), serial dilution in agar; assay type: cell-based; details: diagnostic sensitivity test agar

Q: Which MIC does the source give for `C/C(=C\C(=O)OC(C)CCCCCS(N)(=O)=O)CC1OCC(CC2OC2C(C)C(C)O)C(O)C1O` (centres unmarked) [Example 5, 7-Sulphamoylhept-2-yl monate A] here?
A: 40 µg/mL (≈ 76.7 µM)

tested on: not listed separately; assay: Serum binding by ultrafiltration of porcine serum; assay type: in vitro ADME; details: pig, 8 mcg/ml, microbiological assay, read-out: % bound to pig serum (converted)
Method: Serum binding was assessed by ultrafiltration of porcine serum containing compounds at 8 mcg/ml, and through an Amicon CF50A ultrafiltration cone. Separation of ultrafiltrate was achieved by centrifugation. Unbound concentrations of compound were measured in the ultrafiltrate by microbiological assay (B. subtilis ATCC 6633) against standards prepared in saline.

Q: For `C/C(=C\C(=O)OC(C)CCCCCS(N)(=O)=O)CC1OCC(CC2OC2C(C)C(C)O)C(O)C1O` (centres unmarked) [Example 5, 7-Sulphamoylhept-2-yl monate A], which fraction unbound is on record?
A: 0.354

tested on: Neisseria catarrhalis 1502; assay: MIC human bacteria (Table 1), serial dilution in nutrient agar; assay type: cell-based; details: nutrient agar with 5% chocolated horse blood

Q: With `C/C(=C\C(=O)OC(C)CCCCCS(N)(=O)=O)CC1OCC(CC2OC2C(C)C(C)O)C(O)C1O` (centres unmarked) [Example 5, 7-Sulphamoylhept-2-yl monate A] as the molecule, how does the MIC read?
A: 1 µg/mL (≈ 1.92 µM)

tested on: K. aerogenes A; assay: as above; assay type: cell-based; details: Klebsiella aerogenes, nutrient agar with 5% chocolated horse blood

Q: With `C/C(=C\C(=O)OC(C)CCCCCS(N)(=O)=O)CC1OCC(CC2OC2C(C)C(C)O)C(O)C1O` (centres unmarked) [Example 5, 7-Sulphamoylhept-2-yl monate A] as the molecule, how does the MIC read?
A: > 100 µg/mL

tested on: M. suipneumoniae MS16; assay: anti-mycoplasmal MIC, Friis broth solidified with agarose (Table 4); assay type: cell-based; details: Mesomycoplasma hyopneumoniae, MS16, 144 h

Q: For `C/C(=C\C(=O)OC(C)CCCCCS(N)(=O)=O)CC1OCC(CC2OC2C(C)C(C)O)C(O)C1O` (centres unmarked) [Example 5, 7-Sulphamoylhept-2-yl monate A], which MIC is on record?
A: 250 µg/mL (≈ 479 µM)

tested on: Past multocida PA1; assay: MIC veterinary bacteria (Table 2), serial dilution in agar; assay type: cell-based; details: diagnostic sensitivity test agar

Q: Which MIC does the source give for `C/C(=C\C(=O)OC(C)CCCCCS(N)(=O)=O)CC1OCC(CC2OC2C(C)C(C)O)C(O)C1O` (centres unmarked) [Example 5, 7-Sulphamoylhept-2-yl monate A] here?
A: 0.625 µg/mL (≈ 1.2 µM)

tested on: P. mirabilis 889; assay: MIC human bacteria (Table 1), serial dilution in nutrient agar; assay type: cell-based; details: Proteus mirabilis; P. mirabilis 889; nutrient agar with 5% chocolated horse blood; read-out: MIC

Q: Which MIC does the source give for `C/C(=C\C(=O)OC(C)CCCCCS(N)(=O)=O)CC1OCC(CC2OC2C(C)C(C)O)C(O)C1O` (centres unmarked) [Example 5, 7-Sulphamoylhept-2-yl monate A] here?
A: > 100 µg/mL

tested on: Strep agalactiae SPA1; assay: MIC veterinary bacteria (Table 2), serial dilution in agar; assay type: cell-based; details: diagnostic sensitivity test agar

Q: With `C/C(=C\C(=O)OC(C)CCCCCS(N)(=O)=O)CC1OCC(CC2OC2C(C)C(C)O)C(O)C1O` (centres unmarked) [Example 5, 7-Sulphamoylhept-2-yl monate A] as the molecule, how does the MIC read?
A: 1.25 µg/mL (≈ 2.4 µM)

tested on: Corynebacterium pyogenes CY1; assay: as above; assay type: cell-based; details: Trueperella pyogenes, diagnostic sensitivity test agar

Q: With `C/C(=C\C(=O)OC(C)CCCCCS(N)(=O)=O)CC1OCC(CC2OC2C(C)C(C)O)C(O)C1O` (centres unmarked) [Example 5, 7-Sulphamoylhept-2-yl monate A] as the molecule, how does the MIC read?
A: 80 µg/mL (≈ 153 µM)

tested on: E. coli NCTC 10418; assay: as above; assay type: cell-based; details: Escherichia coli, NCTC10418; E. coli NCTC 10418; diagnostic sensitivity test agar; read-out: MIC

Q: With `C/C(=C\C(=O)OC(C)CCCCCS(N)(=O)=O)CC1OCC(CC2OC2C(C)C(C)O)C(O)C1O` (centres unmarked) [Example 5, 7-Sulphamoylhept-2-yl monate A] as the molecule, how does the MIC read?
A: > 80 µg/mL

tested on: Past multocida PA2; assay: as above; assay type: cell-based; details: diagnostic sensitivity test agar

Q: For `C/C(=C\C(=O)OC(C)CCCCCS(N)(=O)=O)CC1OCC(CC2OC2C(C)C(C)O)C(O)C1O` (centres unmarked) [Example 5, 7-Sulphamoylhept-2-yl monate A], which MIC is on record?
A: 0.312 µg/mL (≈ 0.598 µM)

tested on: Strep pyogenes B 2788; assay: MIC human bacteria (Table 1), serial dilution in nutrient agar; assay type: cell-based; details: nutrient agar with 5% chocolated horse blood

Q: Which MIC does the source give for `C/C(=C\C(=O)OC(C)CCCCCS(N)(=O)=O)CC1OCC(CC2OC2C(C)C(C)O)C(O)C1O` (centres unmarked) [Example 5, 7-Sulphamoylhept-2-yl monate A] here?
A: 2.5 µg/mL (≈ 4.79 µM)

tested on: Staph aureus 152 (pen. sens); assay: MIC veterinary bacteria (Table 2), serial dilution in agar; assay type: cell-based; details: Staphylococcus aureus, diagnostic sensitivity test agar

Q: For `C/C(=C\C(=O)OC(C)CCCCCS(N)(=O)=O)CC1OCC(CC2OC2C(C)C(C)O)C(O)C1O` (centres unmarked) [Example 5, 7-Sulphamoylhept-2-yl monate A], which MIC is on record?
A: 1.25 µg/mL (≈ 2.4 µM)

tested on: Staph aureus Oxford; assay: as above; assay type: cell-based; details: Staphylococcus aureus; Staph aureus Oxford; diagnostic sensitivity test agar; read-out: MIC

Q: Which MIC does the source give for `C/C(=C\C(=O)OC(C)CCCCCS(N)(=O)=O)CC1OCC(CC2OC2C(C)C(C)O)C(O)C1O` (centres unmarked) [Example 5, 7-Sulphamoylhept-2-yl monate A] here?
A: 1.25 µg/mL (≈ 2.4 µM)

tested on: S. dublin S7; assay: as above; assay type: cell-based; details: Salmonella enterica, diagnostic sensitivity test agar

Q: Which MIC does the source give for `C/C(=C\C(=O)OC(C)CCCCCS(N)(=O)=O)CC1OCC(CC2OC2C(C)C(C)O)C(O)C1O` (centres unmarked) [Example 5, 7-Sulphamoylhept-2-yl monate A] here?
A: > 80 µg/mL

tested on: Strep pyogenes A 64/848; assay: MIC human bacteria (Table 1), serial dilution in nutrient agar; assay type: cell-based; details: nutrient agar with 5% chocolated horse blood

Q: With `C/C(=C\C(=O)OC(C)CCCCCS(N)(=O)=O)CC1OCC(CC2OC2C(C)C(C)O)C(O)C1O` (centres unmarked) [Example 5, 7-Sulphamoylhept-2-yl monate A] as the molecule, how does the MIC read?
A: 2.5 µg/mL (≈ 4.79 µM)

tested on: Strep uberis SPU1; assay: MIC veterinary bacteria (Table 2), serial dilution in agar; assay type: cell-based; details: diagnostic sensitivity test agar

Q: For `C/C(=C\C(=O)OC(C)CCCCCS(N)(=O)=O)CC1OCC(CC2OC2C(C)C(C)O)C(O)C1O` (centres unmarked) [Example 5, 7-Sulphamoylhept-2-yl monate A], which MIC is on record?
A: 0.625 µg/mL (≈ 1.2 µM)
